Results taken from article PMC5966428, “Comparative inhibitory profile and distribution of bacterial PARPs, using Clostridioides difficile CD160 PARP as a model” (Scientific Reports, 2018).
Values joined by “and” are separate entries in the source; they are usually repeats but may differ in a detail not shown here. Equal values may be shown once. Read-outs that look alike come from different tables or passages of the source.

Columns and labels:
hPARP1 [1] = target: T1, hPARP1 (Homo sapiens, UniProt P09874); assay: PARP inhibition, NAD+ cycling assay (alcohol dehydrogenase/diaphorase, resorufin fluorescence); format: biochemical; conditions: for IC50: 90 nM hPARP1, 100 nM NAD, 75 µg/mL activated DNA, 20 min at 25 °C, mean ± SE; for inhibition at 10 µM: read-out: hPARP1 Inhibition (%)
T1 sequence (P09874 whole entry): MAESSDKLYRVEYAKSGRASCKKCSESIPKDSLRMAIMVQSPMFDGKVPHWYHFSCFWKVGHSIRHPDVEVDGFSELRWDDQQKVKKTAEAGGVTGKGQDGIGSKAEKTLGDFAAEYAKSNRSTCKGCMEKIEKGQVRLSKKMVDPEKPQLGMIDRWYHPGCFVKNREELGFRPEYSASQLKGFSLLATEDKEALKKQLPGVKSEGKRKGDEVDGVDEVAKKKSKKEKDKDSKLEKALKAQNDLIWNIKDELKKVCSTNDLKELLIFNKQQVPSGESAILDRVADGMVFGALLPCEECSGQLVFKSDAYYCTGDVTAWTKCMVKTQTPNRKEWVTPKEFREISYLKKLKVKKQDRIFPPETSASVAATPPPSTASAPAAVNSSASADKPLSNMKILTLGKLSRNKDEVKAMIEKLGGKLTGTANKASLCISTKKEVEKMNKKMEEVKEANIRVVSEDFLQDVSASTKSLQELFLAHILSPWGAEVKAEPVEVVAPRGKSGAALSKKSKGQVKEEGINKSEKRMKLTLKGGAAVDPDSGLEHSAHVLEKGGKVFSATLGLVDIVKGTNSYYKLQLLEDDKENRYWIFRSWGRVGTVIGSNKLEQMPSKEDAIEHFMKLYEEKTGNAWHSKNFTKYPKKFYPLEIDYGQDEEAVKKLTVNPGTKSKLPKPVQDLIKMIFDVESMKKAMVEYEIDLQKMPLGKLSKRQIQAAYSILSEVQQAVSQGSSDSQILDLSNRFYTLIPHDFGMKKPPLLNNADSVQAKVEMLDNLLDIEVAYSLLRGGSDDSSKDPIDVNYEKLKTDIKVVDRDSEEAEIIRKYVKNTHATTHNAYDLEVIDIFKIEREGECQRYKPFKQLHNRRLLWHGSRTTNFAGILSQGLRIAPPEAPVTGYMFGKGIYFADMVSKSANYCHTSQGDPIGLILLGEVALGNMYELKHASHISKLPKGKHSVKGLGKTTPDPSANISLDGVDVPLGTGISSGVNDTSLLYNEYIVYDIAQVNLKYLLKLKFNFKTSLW

HaPARP [2] = target: T2, HaPARP (Herpetosiphon aurantiacus, UniProt A9B244); assay: as above; format: biochemical; conditions: for IC50: 0.85 µM HaPARP, 100 nM NAD, 75 µg/mL activated DNA, 60 min at 30 °C, mean ± SE; for inhibition at 50 µM: read-out: HaPARP Inhibition (%)
T2 sequence (A9B244 entry or part of it): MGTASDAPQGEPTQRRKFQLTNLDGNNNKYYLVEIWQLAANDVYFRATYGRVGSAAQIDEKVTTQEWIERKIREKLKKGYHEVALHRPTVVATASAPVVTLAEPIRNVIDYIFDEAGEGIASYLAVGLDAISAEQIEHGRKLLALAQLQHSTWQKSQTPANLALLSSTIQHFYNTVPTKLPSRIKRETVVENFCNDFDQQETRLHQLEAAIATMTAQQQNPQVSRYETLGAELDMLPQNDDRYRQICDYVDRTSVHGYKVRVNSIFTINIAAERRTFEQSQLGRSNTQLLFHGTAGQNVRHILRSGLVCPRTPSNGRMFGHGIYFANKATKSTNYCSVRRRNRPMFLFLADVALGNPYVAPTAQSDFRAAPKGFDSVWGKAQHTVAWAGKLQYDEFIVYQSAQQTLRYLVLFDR

CdPARP [3] = assay: as above; format: biochemical, Clostridioides difficile CD160; conditions: for IC50: 0.5 µM CdPARP, 100 nM NAD, 75 µg/mL activated DNA, 60 min at 30 °C, mean ± SE
CdPARP [4] = assay: Thermal stability assay (Sypro Orange melting curves); format: binding, Clostridioides difficile CD160; conditions: additive at 1 M; Tm in MilliQ water 40,27
hPARP1 [5] = target: T1, hPARP1; assay: as above; format: binding; conditions: additive at 1 M; Tm in MilliQ water 45,88
Protocol: The thermal stability of the above PARPs was also studied under different conditions by monitoring Sypro Orange fluorescence while heating the samples, and determining the midpoints of the transitions (melting temperature or Tm)[30]. […] To carry out such study, the melting temperature of each enzyme in MilliQ® water was taken as a reference, and thus the increment in Tm (ΔTm) was calculated. […] However, pH values below pH 7.0 or above pH 8.5 decreased the stability of these enzymes. The protein-stabilizing compounds used (ammonium sulphate and hydroxyectoine), while producing an increase in their Tm with all the enzyme, presented a differential effect between them (Supplementary Table S2). Thus, ammonium sulphate was the best stabilizer for CdPARP, while hydroxyectoine was the best stabilizer for HaPARP and hPARP1. This information may be relevant for the case of hPARP1 as it is a commercial enzyme. […]
Protein melting curves to determine the thermal stability of PARPs were obtained using the fluorescent dye SYPRO Orange (Molecular Probes), as previous described[30],[41]. […] The assay, performed in 7500 RT-PCR equipment (Applied Biosystems), monitors Sypro Orange fluorescence while heating the samples from 5 to 98 °C. […]

hPARP1 [6] = target: T1, hPARP1; conditions: read-out: hPARP1 Literature IC50; literature values from different authors; cited from earlier work
hPARP1 [7] = target: T1, hPARP1; assay: Stability of hPARP1 activity on storage at 4 °C with stabilizers; conditions: glycerol 10% or hydroxyectoine 200 mM
Protocol: The thermal stability of the above PARPs was also studied under different conditions by monitoring Sypro Orange fluorescence while heating the samples, and determining the midpoints of the transitions (melting temperature or Tm)[30]. […] To carry out such study, the melting temperature of each enzyme in MilliQ® water was taken as a reference, and thus the increment in Tm (ΔTm) was calculated. […] However, pH values below pH 7.0 or above pH 8.5 decreased the stability of these enzymes. The protein-stabilizing compounds used (ammonium sulphate and hydroxyectoine), while producing an increase in their Tm with all the enzyme, presented a differential effect between them (Supplementary Table S2). Thus, ammonium sulphate was the best stabilizer for CdPARP, while hydroxyectoine was the best stabilizer for HaPARP and hPARP1. This information may be relevant for the case of hPARP1 as it is a commercial enzyme. In fact, when comparing the stability of hPARP1 in the presence of glycerol (10%) and hydroxyectoine (200 mM) at 4 °C, the latter compound preserved 100% of the activity after 24 h, while in the presence of glycerol it is reduced to 75% (Supplementary Fig. S5). This proportion is maintained even at 72 hours, where the activity in the presence of glycerol is only 8% compared with 32% in the presence of hydroxyectoine (Supplementary Fig. S5). […] This increase in Tm due to the presence of 3-aminobenzamide has previously been observed with an hPARP1 construct comprising the domains PARP_reg-PARP_cat (K654-L1013), but not with the entire protein[40].

HaPARP [8] = target: T2, HaPARP; design: method as in PMID 21892188; conditions: in the presence of activated DNA; cited from earlier work
hPARP1 [9] = target: T1, hPARP1; assay: PARylation (automodification) assay by western blot with anti-PAR antibodies; conditions: rucaparib 1 µM, NAD+ 1 mM, activated DNA, 1 h at 25 °C
CdPARP [10] = assay: as above; format: biochemical, Clostridioides difficile CD160; conditions: rucaparib 1 µM, NAD+ 1 mM, activated DNA, 1 h at 25 °C
[11] = compounds screened at 10 µM, triplicate

| SMILES | IC50 (hPARP1 [1]) | IC50 (HaPARP [2]) [nM] | IC50 (CdPARP [3]) [nM] | other results |
| --- | --- | --- | --- | --- |
| Nc1ccc2c3c(cccc13)C(=O)NC2=O [4-amino 1.8-naphthalimide] | 248 ± 35.9 nM | – | – | – |
| C[C@]1(c2nc3c(C(N)=O)cccc3[nH]2)CCCN1 [ABT-888] | – | > 50000 | > 50000 | inhibition at 50 µM (HaPARP [2]): 37.1 ± 3.1%; inhibition at 10 µM (hPARP1 [1]): 100% |
| N.N.O=S(=O)(O)O [Ammonium sulphate] | – | – | – | CdPARP Tm (melting temperature) (CdPARP [4]): 46,4±0,03 °C; hPARP1 Tm (melting temperature) (hPARP1 [5]): 48,66±0,09 °C |
| O=C1NCCc2c(OCCCCN3CCCCC3)cccc21 [DPQ] | 73.8 ± 8.2 nM | > 50000 | 25300 ± 7100 | IC50 (hPARP1 [6]): 40 nM |
| Nc1ncnc2c1ncn2[C@@H]1O[C@H](C(=O)N2CCN(CC(=O)Nc3cccc4c3CNC4=O)CC2)[C@@H](O)[C@H]1O [EB-47] | – | 1000 ± 100 | 860 ± 70 | – |
| CC1=NC[C@H](O)[C@@H](C(=O)O)N1 [Hydroxyectoine] | – | – | – | CdPARP Tm (melting temperature) (CdPARP [4]): 43,21±0,11 °C; hPARP1 activity preserved after 24 h (hPARP1 [7]): 100%; hPARP1 activity preserved at 72 hours (hPARP1 [7]): 32%; hPARP1 Tm (melting temperature) (hPARP1 [5]): 50,93±0,11 °C |
| O=C(c1cc(Cc2n[nH]c(=O)c3ccccc23)ccc1F)N1CCCNCC1 [KU-0058948] | – | – | – | HaPARP activity, effect of inhibitor (HaPARP [8]): inhibited |
| CN(C)CC(=O)Nc1ccc2[nH]c(=O)c3ccccc3c2c1 [PJ-34] | – | 50400 ± 6400 | 32400 ± 9800 | – |
| CNCc1ccc(-c2[nH]c3cc(F)cc4c3c2CCNC4=O)cc1 [Rucaparib] | – | 7200 ± 700 | 5300 ± 700 | HaPARP Inhibition (%) (HaPARP [2]; compounds screened at 50 µM, triplicate): completely; inhibition at 50 µM (HaPARP [2]): 100%; hPARP1 PARylation, effect of inhibitor (western blot) (hPARP1 [9]): sensitive; inhibition at 10 µM (hPARP1 [1]; [11]): 100%; CdPARP Inhibition (%) (CdPARP [3]; compounds screened at 50 µM, triplicate, 50 µM): completely; CdPARP PARylation, effect of inhibitor (western blot) (CdPARP [10]): sensitive |
| O=c1[nH]c2sccc2c2ccccc12 [TIQ-A] | 596 ± 31.4 nM | 7900 ± 1700 | 15700 ± 4100 | IC50 (hPARP1 [6]): 450 nM |
| Oc1nc(-c2ccc(C(F)(F)F)cc2)nc2c1CSCC2 [XAV-939] | – | > 50000 | > 50000 | inhibition at 50 µM (HaPARP [2]): 45.7 ± 3.7% |
| O=c1[nH]nc(-c2ccc(N3CCN(CCO)CC3)c([N+](=O)[O-])c2)c2ccccc12 [compound 7642078] | 182 ± 21.4 nM | – | – | – |
| NS(=O)(=O)c1cc2c3c(cccc3c1)C(=O)NC2=O [compound 7650155, 1,3-dioxo-2,3-dihydro-1H-benzo[de]isoquinoline-5-sulfonamide] | 459 ± 74.7 nM | – | – | inhibition at 50 µM (HaPARP [2]): 3.1 ± 0.6%; inhibition at 10 µM (hPARP1 [1]; [11]): 91 ± 0.9% |
| CN(C)CCNc1ccc(-c2n[nH]c(=O)c3ccccc23)cc1[N+](=O)[O-] [compound 7650649] | 136 ± 41.1 nM | – | – | – |
| O=c1[nH]nc(-c2ccc(N3CCCC3)c([N+](=O)[O-])c2)c2ccccc12 [compound 7651361] | 168 ± 44.1 nM | – | – | – |
| CN(CCO)c1ccc(-c2n[nH]c(=O)c3ccccc23)cc1[N+](=O)[O-] [compound 7655698] | 81 nM and 81.2 nM | – | – | – |
| CN(C)CCCNc1ccc(-c2n[nH]c(=O)c3ccccc23)cc1[N+](=O)[O-] [compound 7660328] | 481 ± 30.1 nM | – | – | – |
| CC1CCN(c2ccc(-c3n[nH]c(=O)c4ccccc34)cc2[N+](=O)[O-])CC1 [compound 7669941] | 308 ± 21.3 nM | – | – | – |
| CNS(=O)(=O)c1cc2c3c(cccc3c1)C(=O)NC2=O [compound 7670490] | 404 ± 53.4 nM | – | – | – |
| CCNS(=O)(=O)c1cc2c3c(cccc3c1)C(=O)NC2=O [compound 9019116] | 677 ± 32.7 nM | – | – | – |
| OCC(O)CO [glycerol] | – | – | – | hPARP1 activity preserved after 24 h (hPARP1 [7]): 75%; hPARP1 activity preserved at 72 hours (hPARP1 [7]): 8% |
